Data from ChEMBL document CHEMBL5696442, “Discovery of type II inhibitors of TGFβ-activated kinase 1 (TAK1) and mitogen-activated protein kinase kinase kinase kinase 2 (MAP4K2)” (J Med Chem, 2015).
Activity calls are given as the source filed them. The calls are words filed in the database; no cut-off is given here.

Columns and labels:
[1] = biological target: Tyrosine-protein kinase JAK2 (Homo sapiens) (UniProt O60674); assay: Inhibition of JAK2 JH1catalytic domain (unknown origin) at 1 uM by Ambit Kinomescan binding assay relative to control
[2] = biological target: T1, Serine/threonine-protein kinase LATS1 (Homo sapiens) (UniProt O95835); assay: Inhibition of LATS1 (unknown origin) at 1 uM by Ambit Kinomescan binding assay relative to control
T1 sequence (whole entry): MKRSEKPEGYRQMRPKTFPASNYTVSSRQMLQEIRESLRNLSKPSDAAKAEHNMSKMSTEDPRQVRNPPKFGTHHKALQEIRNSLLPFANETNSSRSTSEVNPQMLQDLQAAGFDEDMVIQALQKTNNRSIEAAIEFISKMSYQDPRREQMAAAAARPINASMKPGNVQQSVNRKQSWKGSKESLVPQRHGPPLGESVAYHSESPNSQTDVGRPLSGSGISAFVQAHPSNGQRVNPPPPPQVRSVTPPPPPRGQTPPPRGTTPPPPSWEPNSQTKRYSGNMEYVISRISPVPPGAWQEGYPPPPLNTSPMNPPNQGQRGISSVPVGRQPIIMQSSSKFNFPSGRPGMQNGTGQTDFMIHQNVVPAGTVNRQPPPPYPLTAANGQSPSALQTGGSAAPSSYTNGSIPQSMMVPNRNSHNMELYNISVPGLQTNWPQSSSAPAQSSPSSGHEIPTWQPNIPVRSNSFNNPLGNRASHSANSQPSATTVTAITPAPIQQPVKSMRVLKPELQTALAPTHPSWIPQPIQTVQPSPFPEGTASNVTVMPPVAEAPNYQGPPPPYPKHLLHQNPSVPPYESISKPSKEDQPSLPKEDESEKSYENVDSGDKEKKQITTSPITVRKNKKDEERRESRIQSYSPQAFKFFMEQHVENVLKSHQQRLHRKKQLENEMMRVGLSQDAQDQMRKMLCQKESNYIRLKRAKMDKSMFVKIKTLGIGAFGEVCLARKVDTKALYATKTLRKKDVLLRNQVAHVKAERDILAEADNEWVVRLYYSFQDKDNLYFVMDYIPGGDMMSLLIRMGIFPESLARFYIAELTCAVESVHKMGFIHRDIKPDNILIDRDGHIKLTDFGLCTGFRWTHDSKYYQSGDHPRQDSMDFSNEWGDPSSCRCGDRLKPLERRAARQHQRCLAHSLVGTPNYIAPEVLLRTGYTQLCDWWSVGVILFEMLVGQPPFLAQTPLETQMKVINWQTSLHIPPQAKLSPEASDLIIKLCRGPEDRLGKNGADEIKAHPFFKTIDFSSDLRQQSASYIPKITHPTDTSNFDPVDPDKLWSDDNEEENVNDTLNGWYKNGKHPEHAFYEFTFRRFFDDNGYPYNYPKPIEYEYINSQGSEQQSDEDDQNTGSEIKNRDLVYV

[3] = biological target: 3-phosphoinositide-dependent protein kinase 1 (Homo sapiens) (UniProt O15530); assay: Inhibition of PDPK1 (unknown origin) at 1 uM by Ambit Kinomescan binding assay relative to control; values are per cent of control
[4] = biological target: T2, Dual specificity mitogen-activated protein kinase kinase 4 (Homo sapiens) (UniProt P45985); assay: Inhibition of MEK4 (unknown origin) at 1 uM by Ambit Kinomescan binding assay relative to control; values are per cent of control
T2 sequence (whole entry): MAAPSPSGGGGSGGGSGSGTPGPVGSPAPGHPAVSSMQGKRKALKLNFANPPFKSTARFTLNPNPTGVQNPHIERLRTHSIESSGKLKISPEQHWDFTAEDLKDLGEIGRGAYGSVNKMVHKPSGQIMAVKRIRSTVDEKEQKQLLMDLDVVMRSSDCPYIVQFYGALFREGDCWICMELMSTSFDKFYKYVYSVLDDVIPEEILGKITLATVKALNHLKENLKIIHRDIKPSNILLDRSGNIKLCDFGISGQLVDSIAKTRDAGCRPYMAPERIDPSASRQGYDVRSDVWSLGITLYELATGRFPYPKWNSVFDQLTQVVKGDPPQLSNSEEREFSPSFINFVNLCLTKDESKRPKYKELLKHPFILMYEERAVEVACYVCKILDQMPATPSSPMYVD

[5] = biological target: Dual specificity mitogen-activated protein kinase kinase 2 (Homo sapiens) (UniProt P36507); assay: Inhibition of MAP2K2 Lys1 labeling site in human A-375 cells at 0.05 uM by KiNativ Profiling analysis relative to control; format: cell-based
[6] = test system: Tyrosine-protein kinase ABL1 (Homo sapiens), P00519 [F317I]; assay: Inhibition of ABL1 F317I mutant (unknown origin) at 10 uM by Ambit Kinomescan binding assay relative to control
[7] = test system: Mast/stem cell growth factor receptor Kit (Homo sapiens), P10721 [V559D,V654A]; assay: Inhibition of KIT V559D/V654A double mutant (unknown origin) at 10 uM by Ambit Kinomescan binding assay relative to control
[8] = biological target: cAMP-dependent protein kinase catalytic subunit PRKX (Homo sapiens) (UniProt P51817); assay: Inhibition of PRKX (unknown origin) at 10 uM by Ambit Kinomescan binding assay
[9] = biological target: Serine/threonine-protein kinase 38 (Homo sapiens) (UniProt Q15208); assay: Inhibition of NDR1 ACT labeling site in human Huh-7 cell lysate at 1 uM by KiNativ Profiling analysis relative to control; format: subcellular
Serine/threonine-protein kinase 38 (Homo sapiens), sequence (Q15208 2-465 limits assumed): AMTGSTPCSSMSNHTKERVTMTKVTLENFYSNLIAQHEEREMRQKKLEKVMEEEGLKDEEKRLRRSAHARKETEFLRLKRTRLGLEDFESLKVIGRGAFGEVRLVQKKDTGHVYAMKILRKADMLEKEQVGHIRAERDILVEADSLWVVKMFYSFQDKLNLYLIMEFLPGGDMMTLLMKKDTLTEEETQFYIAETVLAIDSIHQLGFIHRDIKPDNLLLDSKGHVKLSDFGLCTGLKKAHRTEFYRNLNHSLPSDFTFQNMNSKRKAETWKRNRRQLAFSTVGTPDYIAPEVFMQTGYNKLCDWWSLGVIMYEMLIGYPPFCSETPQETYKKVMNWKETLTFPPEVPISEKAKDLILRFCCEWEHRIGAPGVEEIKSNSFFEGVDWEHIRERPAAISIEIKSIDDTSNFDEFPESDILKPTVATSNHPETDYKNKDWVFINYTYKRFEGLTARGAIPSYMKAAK

3-phosphoinositide-dependent protein kinase 1 (Homo sapiens), sequence (O15530 whole entry): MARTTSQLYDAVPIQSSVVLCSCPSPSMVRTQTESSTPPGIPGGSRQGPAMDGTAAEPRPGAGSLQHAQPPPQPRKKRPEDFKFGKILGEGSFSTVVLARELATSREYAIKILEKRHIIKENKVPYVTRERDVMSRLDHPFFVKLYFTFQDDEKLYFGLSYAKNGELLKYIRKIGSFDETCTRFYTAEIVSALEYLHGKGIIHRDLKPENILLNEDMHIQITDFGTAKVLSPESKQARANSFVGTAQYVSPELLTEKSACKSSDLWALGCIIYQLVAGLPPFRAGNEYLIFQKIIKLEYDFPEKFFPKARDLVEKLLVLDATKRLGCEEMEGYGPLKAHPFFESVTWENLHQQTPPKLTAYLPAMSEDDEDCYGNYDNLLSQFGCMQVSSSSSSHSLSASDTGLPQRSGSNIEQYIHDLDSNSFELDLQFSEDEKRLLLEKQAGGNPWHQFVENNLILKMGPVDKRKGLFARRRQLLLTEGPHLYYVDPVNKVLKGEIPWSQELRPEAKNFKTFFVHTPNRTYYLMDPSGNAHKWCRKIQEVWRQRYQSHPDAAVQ
Tyrosine-protein kinase JAK2 (Homo sapiens), sequence (O60674 whole entry, the tested form may be a part): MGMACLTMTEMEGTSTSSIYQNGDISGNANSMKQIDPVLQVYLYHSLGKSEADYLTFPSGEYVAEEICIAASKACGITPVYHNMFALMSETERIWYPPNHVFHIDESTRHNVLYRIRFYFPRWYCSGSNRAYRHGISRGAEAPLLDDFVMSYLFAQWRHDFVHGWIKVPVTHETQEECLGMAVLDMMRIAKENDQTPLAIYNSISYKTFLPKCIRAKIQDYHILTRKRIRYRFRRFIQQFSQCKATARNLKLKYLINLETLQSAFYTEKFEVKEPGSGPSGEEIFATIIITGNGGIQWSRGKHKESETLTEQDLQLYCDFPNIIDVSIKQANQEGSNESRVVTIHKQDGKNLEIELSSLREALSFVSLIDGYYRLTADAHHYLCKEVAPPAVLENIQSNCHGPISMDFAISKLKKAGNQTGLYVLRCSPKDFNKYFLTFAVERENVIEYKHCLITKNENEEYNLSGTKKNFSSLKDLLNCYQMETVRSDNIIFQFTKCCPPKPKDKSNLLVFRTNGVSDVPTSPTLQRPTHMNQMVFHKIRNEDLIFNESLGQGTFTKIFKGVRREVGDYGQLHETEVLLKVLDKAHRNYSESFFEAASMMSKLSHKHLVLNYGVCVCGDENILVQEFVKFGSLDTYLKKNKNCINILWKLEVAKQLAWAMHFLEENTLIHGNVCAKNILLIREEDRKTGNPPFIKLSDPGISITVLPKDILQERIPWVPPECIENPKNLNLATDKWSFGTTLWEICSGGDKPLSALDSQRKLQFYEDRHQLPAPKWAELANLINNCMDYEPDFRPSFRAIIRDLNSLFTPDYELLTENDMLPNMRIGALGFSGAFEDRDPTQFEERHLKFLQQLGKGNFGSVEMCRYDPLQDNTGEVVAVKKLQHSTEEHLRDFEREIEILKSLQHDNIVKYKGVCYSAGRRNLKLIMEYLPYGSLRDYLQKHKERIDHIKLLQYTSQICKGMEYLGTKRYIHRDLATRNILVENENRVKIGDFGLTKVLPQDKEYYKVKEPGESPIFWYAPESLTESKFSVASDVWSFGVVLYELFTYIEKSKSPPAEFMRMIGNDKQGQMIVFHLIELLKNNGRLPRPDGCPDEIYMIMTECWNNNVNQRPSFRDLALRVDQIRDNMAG
cAMP-dependent protein kinase catalytic subunit PRKX (Homo sapiens), sequence (P51817 whole entry): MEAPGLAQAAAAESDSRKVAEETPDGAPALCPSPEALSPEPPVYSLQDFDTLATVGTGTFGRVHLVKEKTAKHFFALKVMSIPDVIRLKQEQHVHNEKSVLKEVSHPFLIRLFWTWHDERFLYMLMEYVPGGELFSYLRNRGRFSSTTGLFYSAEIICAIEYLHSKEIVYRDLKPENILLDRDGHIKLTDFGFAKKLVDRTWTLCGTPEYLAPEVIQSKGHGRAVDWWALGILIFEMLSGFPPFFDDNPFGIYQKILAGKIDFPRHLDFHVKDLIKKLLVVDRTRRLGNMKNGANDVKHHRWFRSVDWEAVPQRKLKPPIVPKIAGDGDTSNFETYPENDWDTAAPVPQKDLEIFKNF
Dual specificity mitogen-activated protein kinase kinase 2 (Homo sapiens), sequence (P36507 whole entry): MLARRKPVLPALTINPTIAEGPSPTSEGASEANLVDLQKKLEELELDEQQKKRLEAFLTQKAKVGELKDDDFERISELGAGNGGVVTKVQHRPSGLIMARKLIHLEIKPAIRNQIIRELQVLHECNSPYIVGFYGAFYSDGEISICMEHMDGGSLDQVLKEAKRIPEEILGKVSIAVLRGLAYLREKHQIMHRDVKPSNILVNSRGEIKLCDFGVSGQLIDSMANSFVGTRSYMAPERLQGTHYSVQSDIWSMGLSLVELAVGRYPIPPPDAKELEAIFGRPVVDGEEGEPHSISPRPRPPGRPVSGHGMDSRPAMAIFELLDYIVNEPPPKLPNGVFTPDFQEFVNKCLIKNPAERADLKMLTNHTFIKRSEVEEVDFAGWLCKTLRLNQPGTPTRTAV
Tyrosine-protein kinase ABL1 (Homo sapiens), P00519 [F317I], sequence (P00519 whole entry F317I): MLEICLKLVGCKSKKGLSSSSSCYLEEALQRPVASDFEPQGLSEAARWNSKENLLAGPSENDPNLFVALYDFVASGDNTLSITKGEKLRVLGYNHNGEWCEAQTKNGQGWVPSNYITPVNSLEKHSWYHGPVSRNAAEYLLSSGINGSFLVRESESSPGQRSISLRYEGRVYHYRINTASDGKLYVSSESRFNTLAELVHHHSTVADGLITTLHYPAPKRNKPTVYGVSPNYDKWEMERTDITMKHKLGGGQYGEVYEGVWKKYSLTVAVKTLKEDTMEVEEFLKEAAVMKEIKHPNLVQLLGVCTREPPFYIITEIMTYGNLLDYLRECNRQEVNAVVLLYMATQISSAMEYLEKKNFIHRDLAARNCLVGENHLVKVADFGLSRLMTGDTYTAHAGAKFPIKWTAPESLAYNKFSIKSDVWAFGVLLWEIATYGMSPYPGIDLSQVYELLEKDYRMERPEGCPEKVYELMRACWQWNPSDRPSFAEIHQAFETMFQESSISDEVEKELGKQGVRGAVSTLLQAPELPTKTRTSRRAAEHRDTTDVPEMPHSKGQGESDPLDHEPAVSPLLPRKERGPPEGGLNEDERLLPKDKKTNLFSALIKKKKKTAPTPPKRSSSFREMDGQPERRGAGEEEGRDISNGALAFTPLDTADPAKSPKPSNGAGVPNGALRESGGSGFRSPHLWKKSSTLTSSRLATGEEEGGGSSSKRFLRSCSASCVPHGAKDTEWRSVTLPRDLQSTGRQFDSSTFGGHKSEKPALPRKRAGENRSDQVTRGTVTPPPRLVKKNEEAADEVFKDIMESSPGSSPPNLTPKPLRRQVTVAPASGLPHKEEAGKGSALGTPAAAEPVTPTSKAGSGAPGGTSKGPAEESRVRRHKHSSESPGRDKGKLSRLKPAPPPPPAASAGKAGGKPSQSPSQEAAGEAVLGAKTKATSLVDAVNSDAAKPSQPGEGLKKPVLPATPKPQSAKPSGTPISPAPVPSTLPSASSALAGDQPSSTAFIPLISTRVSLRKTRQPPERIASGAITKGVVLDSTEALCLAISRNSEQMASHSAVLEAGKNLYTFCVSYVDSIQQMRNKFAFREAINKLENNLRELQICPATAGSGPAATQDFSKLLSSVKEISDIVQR
Mast/stem cell growth factor receptor Kit (Homo sapiens), P10721 [V559D,V654A], sequence (P10721 whole entry V559D/V654A): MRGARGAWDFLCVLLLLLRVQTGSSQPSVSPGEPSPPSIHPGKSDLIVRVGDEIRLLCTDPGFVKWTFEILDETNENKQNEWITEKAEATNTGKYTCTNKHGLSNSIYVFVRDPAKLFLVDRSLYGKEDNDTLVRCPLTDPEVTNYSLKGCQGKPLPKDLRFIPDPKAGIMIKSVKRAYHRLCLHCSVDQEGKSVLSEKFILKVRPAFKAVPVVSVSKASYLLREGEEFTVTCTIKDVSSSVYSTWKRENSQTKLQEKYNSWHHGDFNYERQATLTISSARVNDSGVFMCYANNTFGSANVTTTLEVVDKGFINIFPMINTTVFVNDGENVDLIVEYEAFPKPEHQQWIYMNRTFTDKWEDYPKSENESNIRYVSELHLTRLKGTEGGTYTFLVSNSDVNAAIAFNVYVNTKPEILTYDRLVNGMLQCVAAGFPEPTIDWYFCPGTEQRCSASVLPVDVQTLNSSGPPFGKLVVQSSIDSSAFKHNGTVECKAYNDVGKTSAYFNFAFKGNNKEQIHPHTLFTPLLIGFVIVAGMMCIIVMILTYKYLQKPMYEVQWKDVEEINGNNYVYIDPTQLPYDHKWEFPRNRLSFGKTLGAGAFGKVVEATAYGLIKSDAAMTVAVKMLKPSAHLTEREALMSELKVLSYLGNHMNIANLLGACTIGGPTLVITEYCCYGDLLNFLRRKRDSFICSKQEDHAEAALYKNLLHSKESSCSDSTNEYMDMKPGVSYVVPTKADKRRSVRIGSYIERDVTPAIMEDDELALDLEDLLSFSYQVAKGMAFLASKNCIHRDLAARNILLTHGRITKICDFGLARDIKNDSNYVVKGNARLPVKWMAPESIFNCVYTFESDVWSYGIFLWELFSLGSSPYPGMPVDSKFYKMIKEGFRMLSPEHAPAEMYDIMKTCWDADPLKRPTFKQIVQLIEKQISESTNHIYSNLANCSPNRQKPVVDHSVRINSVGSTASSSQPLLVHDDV

Question: How did the inhibition [1] turn out when CCN1CCN(Cc2ccc(NC(=O)c3ccc(C)c(/C=C/c4cnc5[nH]ccc5c4OC)c3)cc2C(F)(F)F)CC1 was run?
Answer: 32%

Question: What about the inhibition [2] of the same compound?
Answer: 80%

Question: And the residual activity [3]?
Answer: 100%

Question: And the residual activity [4]?
Answer: 100%

Question: With CCN1CCN(Cc2ccc(NC(=O)c3ccc(C)c(Oc4ccnc5[nH]ccc45)c3)cc2C(F)(F)F)CC1 as the compound, how does the inhibition [5] read?
Answer: 2.9%

Question: And the inhibition [6]?
Answer: 0.05%

Question: And the inhibition [7]?
Answer: 2.7%

Question: And the inhibition [8]?
Answer: inactive

Question: With CNc1cc(Oc2cc(C(=O)Nc3cc(N4CCN(C)CC4)cc(C(F)(F)F)c3)ccc2C)ncn1 as the compound, how does the inhibition [9] read?
Answer: 4.2%
